Where two headings read alike, the source gives them in different places.
What was measured:
normal colon transit = system: normal colon transit; set-up: species or system male Sprague Dawley rats; conditions: rat
[1] = system: castor oil induced diarrhoea; set-up: species or system male NMRI mice; conditions: mouse, sc
[2] = system: visceral hypersensitivity; set-up: species or system adult female Sprague Dawley rats; conditions: rat

Structure (SMILES): CNCCCN1CN(c2ccccc2)C2(CCN(CCC3CCC4CC3C4(C)C)CC2)C1=O (stereo not shown) [Example 13, 8-[2-(6,6-Dimethyl-bicyclo[3.1.1]hept-2-yl)-ethyl]-3-(3-methylamino-propyl)-1-phenyl-1,3,8-triaza-spiro[4.5]decan-4-one]
- In vivo agonism transit Mean retention time % control (normal colon transit; sc): 105 (s.c.) % control
- In vivo agonism diarrhoea mean score % control [1]: 59 (s.c.) % control

Structure (SMILES): CC1(C)C2CCC(CCN3CCC4(CC3)C(=O)NCN4c3ccccc3)C1C2 (stereo not shown) [Example 1, 8-[2-(6,6-Dimethyl-bicyclo[3.1.1]hept-2-yl)-ethyl]-1-phenyl-1,3,8-triaza-spiro[4.5]decan-4-one]
- In vivo agonism hypersensitivity max inhibition % of control ([2]; sc): 49 (s.c.) % of control

Structure (SMILES): CN(CCN1CN(c2ccccc2)C2(CCN(CCC3CCC4CC3C4(C)C)CC2)C1=O)C(c1ccco1)C(O)CO (stereo not shown) [Example 51]
- In vivo agonism hypersensitivity max inhibition % of control ([2]; po): 44 (p.o.) % of control
- In vivo agonism hypersensitivity max inhibition % of control ([2]; sc): 45 (s.c.) % of control
- In vivo agonism transit Mean retention time % control (normal colon transit; po): 105 (p.o.) % control
- In vivo agonism transit Mean retention time % control (normal colon transit; sc): 102 (s.c.) % control

Structure (SMILES): CN(CCCN1CN(c2ccccc2)C2(CCN(CCC3CCC4CC3C4(C)C)CC2)C1=O)CC1(O)CCNCC1 (stereo not shown) [Example 37, 8-[2-(6,6-Dimethyl-bicyclo[3.1.1]hept-2-yl)-ethyl]-3-{3-[(4-hydroxy-piperidin-4-ylmethyl)-methyl-amino]-propyl}-1-phenyl-1,3,8-triaza-spiro[4.5]decan-4-one]
- In vivo agonism hypersensitivity max inhibition % of control ([2]; sc): 34 (s.c.) % of control

Structure (SMILES): CNCCCCN1CN(c2ccccc2)C2(CCN(CCC3CCC4CC3C4(C)C)CC2)C1=O (stereo not shown) [Example 14]
- In vivo agonism transit Mean retention time % control (normal colon transit; sc): 111 (s.c.) % control
- In vivo agonism diarrhoea mean score % control [1]: 64 (s.c.) % control

From US7241770B2 (priority 2003, dated 2007)
